Like-named read-outs stand apart in the source and are kept apart here.
Tested on: Aβ1-42 production
Assay: Cellular assay for inhibition of Aβ1-42 production (H4 APP751 SWE clone 8.20)
Assay type: cell-based
Conditions: H4 APP751 SWE clone 8.20 cells, 19 h incubation
Method in brief: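 H4 cells stably expressing Swedish-mutant APP751 incubated with compound 19 h at 37 °C, 5% CO2. Secreted Aβ42 detected by HTRF with Aβ42 neoepitope antibody 565 (0.8 ng/well) and N-terminal 26D6 (75 ng/well), overnight at 4 °C. IC50 obtained by curve fitting.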

[1] = 19 h, class symbols, read-out: Activity Rating (Aβ42 cellular IC50)
[2] = 19 h, read-out: Activity Rating (Aβ42 cellular IC50), numeric value
[3] = class symbols, read-out: Activity Rating (Aβ42 cellular IC50)

| Structure (SMILES) | IC50 [1] [µM] | also measured |
| --- | --- | --- |
| COc1cc(Nc2nc3c(c(N4CCC(F)C4)n2)COCC3c2ccc(F)cc2)ccc1-n1cnc(Cl)c1 (stereo in doubt) [Example 58A, N-(4-(4-chloro-1H-imidazol-1-yl)-3-methoxyphenyl)-8-(4-fluorophenyl)-4-((S)-3-fluoropyrrolidin-1-yl)-7,8-dihydro-5H-pyrano[4,3-d]pyrimidin-2-amine] | 0.0015 to 0.0099 |  |
| COc1cc(Nc2nc3c(c(N4CCC(F)C4)n2)COCC3c2ccc(F)cc2)ccc1-n1cnc(Cl)c1 (stereo in doubt) [Example 58B, N-(4-(4-chloro-1H-imidazol-1-yl)-3-methoxyphenyl)-8-(4-fluorophenyl)-4-((S)-3-fluoropyrrolidin-1-yl)-7,8-dihydro-5H-pyrano[4,3-d]pyrimidin-2-amine] |  | IC50 [2]: 0.12 µM |
| COc1cc(Nc2nc3c(c(N4CCC(F)C4)n2)CCOC3c2ccc(F)cc2)ccc1-n1cnc(Cl)c1 (stereo in doubt) [Example 90A, N-(4-(4-chloro-1H-imidazol-1-yl)-3-methoxyphenyl)-8-(4-fluorophenyl)-4-((R)-3-fluoropyrrolidin-1-yl)-6,8-dihydro-5H-pyrano[3,4-d]pyrimidin-2-amine] | 0.01 to 0.1 |  |
| COc1cc(Nc2nc3c(c(N4CCC(F)C4)n2)CCOC3c2ccc(F)cc2)ccc1-n1cnc(Cl)c1 (stereo in doubt) [Example 90B, N-(4-(4-chloro-1H-imidazol-1-yl)-3-methoxyphenyl)-8-(4-fluorophenyl)-4-((R)-3-fluoropyrrolidin-1-yl)-6,8-dihydro-5H-pyrano[3,4-d]pyrimidin-2-amine] |  | IC50 [2]: 0.27 µM |
| COc1cc(Nc2nc3c(c(N4CCC(F)C4)n2)CCOC3c2ccc(F)cc2)ccc1-n1cnc(Cl)c1 (stereo in doubt) [Example 91A, N-(4-(4-chloro-1H-imidazol-1-yl)-3-methoxyphenyl)-8-(4-fluorophenyl)-4-((S)-3-fluoropyrrolidin-1-yl)-6,8-dihydro-5H-pyrano[3,4-d]pyrimidin-2-amine] |  | IC50 [3]: 0.0015 to 0.0099 µM |
| COc1cc(Nc2nc3c(c(N4CCC(F)C4)n2)CCOC3c2ccc(F)cc2)ccc1-n1cnc(Cl)c1 (stereo in doubt) [Example 91B, N-(4-(4-chloro-1H-imidazol-1-yl)-3-methoxyphenyl)-8-(4-fluorophenyl)-4-((S)-3-fluoropyrrolidin-1-yl)-6,8-dihydro-5H-pyrano[3,4-d]pyrimidin-2-amine] |  | IC50 [3]: 0.1 to 1 µM |
| CNc1nc(Nc2ccc(-n3cnc(C)n3)c(OC)c2)nc2c1CCC2c1ccccc1 (stereo not shown) [Example 1, N2-(3-methoxy-4-(3-methyl-1H-1,2,4-triazol-1-yl)phenyl)-N4-methyl-7-phenyl-6,7-dihydro-5H-cyclopenta[d]pyrimidine-2,4-diamine] | 0.0015 to 0.0099 |  |
| CNc1nc(Nc2ccc(-n3cnc(C)n3)c(F)c2)nc2c1CCC2c1ccccc1 (stereo not shown) [Example 2, N2-(3-fluoro-4-(3-methyl-1H-1,2,4-triazol-1-yl)phenyl)-N4-methyl-7-phenyl-6,7-dihydro-5H-cyclopenta[d]pyrimidine-2,4-diamine] | 0.0015 to 0.0099 |  |
| CNc1nc(Nc2ccc(-n3ncnc3C)c(F)c2)nc2c1CCC2c1ccccc1 (stereo not shown) [Example 3, N2-(3-fluoro-4-(5-methyl-1H-1,2,4-triazol-1-yl)phenyl)-N4-methyl-7-phenyl-6,7-dihydro-5H-cyclopenta[d]pyrimidine-2,4-diamine] | 0.01 to 0.1 |  |
| COc1cc(Nc2nc3c(c(N(C)C)n2)CCC3c2ccccc2)ccc1-n1cnc(Cl)c1 (stereo not shown) [Example 4, N^2-(4-(4-Chloro-1H-imidazol-1-yl)-3-methoxyphenyl)-N^4,N^4-dimethyl-7-phenyl-6,7-dihydro-5H-cyclopenta[d]pyrimidine-2,4-diamine] | 0.0015 to 0.0099 |  |
| CCN(C)c1nc(Nc2ccc(-n3cnc(Cl)c3)c(OC)c2)nc2c1CCC2c1ccccc1 (stereo not shown) [Example 5, N^2-(4-(4-Chloro-1H-imidazol-1-yl)-3-methoxyphenyl)-N^4-ethyl-N^4-methyl-7-phenyl-6,7-dihydro-5H-cyclopenta[d]pyrimidine-2,4-diamine] | 0.0015 to 0.0099 |  |
| COc1cc(Nc2nc3c(c(N4CCC4)n2)CCC3c2ccccc2)ccc1-n1cnc(Cl)c1 (stereo not shown) [Example 6, 4-(Azetidin-1-yl)-N-(4-(4-chloro-1H-imidazol-1-yl)-3-methoxyphenyl)-7-phenyl-6,7-dihydro-5H-cyclopenta[d]pyrimidin-2-amine] | 0.01 to 0.1 |  |
| COc1cc(Nc2nc(NC3CC3)c3c(n2)C(c2ccccc2)CC3)ccc1-n1cnc(Cl)c1 (stereo not shown) [Example 8, N2-(4-(4-chloro-1H-imidazol-1-yl)-3-methoxyphenyl)-N4-cyclopropyl-7-phenyl-6,7-dihydro-5H-cyclopenta[d]pyrimidine-2,4-diamine] | 0.0015 to 0.0099 |  |
| COc1cc(Nc2nc(NC3CCC3)c3c(n2)C(c2ccccc2)CC3)ccc1-n1cnc(Cl)c1 (stereo not shown) [Example 9, N2-(4-(4-chloro-1H-imidazol-1-yl)-3-methoxyphenyl)-N4-cyclobutyl-7-phenyl-6,7-dihydro-5H-cyclopenta[d]pyrimidine-2,4-diamine] |  | IC50 [2]: 0.0081 µM |
| COc1cc(Nc2nc(NC(C)C)c3c(n2)C(c2ccccc2)CC3)ccc1-n1cnc(Cl)c1 (stereo not shown) [Example 10, N2-(4-(4-chloro-1H-imidazol-1-yl)-3-methoxyphenyl)-N4-isopropyl-7-phenyl-6,7-dihydro-5H-cyclopenta[d]pyrimidine-2,4-diamine] | 0.0015 to 0.0099 |  |
| CNc1nc(Nc2ccc(-n3cnc(Cl)c3)c(OC)c2)nc2c1CCC2c1ccc(F)cc1 (stereo not shown) [Example 11, N^2-(4-(4-Chloro-1H-imidazol-1-yl)-3-methoxyphenyl)-7-(4-fluorophenyl)-N^4-methyl-6,7-dihydro-5H-cyclopenta[d]pyrimidine-2,4-diamine] | 0.0015 to 0.0099 |  |
| CNc1nc(Nc2ccc(-n3ncnc3C)c(F)c2)nc2c1CCC2c1ccc(F)cc1 (stereo not shown) [Example 12, N^2-(3-Fluoro-4-(5-methyl-1H-1,2,4-triazol-1-yl)phenyl)-7-(4-fluorophenyl)-N^4-methyl-6,7-dihydro-5H-cyclopenta[d]pyrimidine-2,4-diamine] | 0.0015 to 0.0099 |  |
| COc1cc(Nc2nc3c(c(N4CC(F)(F)C4)n2)CCC3c2ccc(F)cc2)ccc1-n1cnc(Cl)c1 (stereo not shown) [Example 15, N-(4-(4-Chloro-1H-imidazol-1-yl)-3-methoxyphenyl)-4-(3,3-difluoroazetidin-1-yl)-7-(4-fluorophenyl)-6,7-dihydro-5H-cyclopenta[d]pyrimidin-2-amine] | 0.01 to 0.1 |  |
| COc1cc(Nc2nc3c(c(N4C[C@@H]5C[C@H]4CO5)n2)CCC3c2ccc(F)cc2)ccc1-n1cnc(Cl)c1 (stereo partly drawn) [Example 18, 4-((1S,4S)-2-oxa-5-azabicyclo[2.2.1]heptan-5-yl)-N-(4-(4-chloro-1H-imidazol-1-yl)-3-methoxyphenyl)-7-(4-fluorophenyl)-6,7-dihydro-5H-cyclopenta[d]pyrimidin-2-amine] | 0.01 to 0.1 |  |
| COc1cc(Nc2nc3c(c(N4C[C@@H](C)O[C@@H](C)C4)n2)CCC3c2ccc(F)cc2)ccc1-n1cnc(Cl)c1 (stereo partly shown) [Example 21] | 0.01 to 0.1 |  |
| COc1cc(Nc2nc3c(c(N4CCC(C)(N)CC4)n2)CCC3c2ccc(F)cc2)ccc1-n1cnc(Cl)c1 (stereo not shown) [Example 25, 4-(4-amino-4-methylpiperidin-1-yl)-N-(4-(4-chloro-1H-imidazol-1-yl)-3-methoxyphenyl)-7-(4-fluorophenyl)-6,7-dihydro-5H-cyclopenta[d]pyrimidin-2-amine] | 0.01 to 0.1 |  |
| CNc1nc(Nc2ccc(-n3ncnc3C)c(F)c2)nc2c1CCC2c1ccc(F)cc1 (stereo not shown) [Example 26, N^2-(3-fluoro-4-(5-methyl-1H-1,2,4-triazol-1-yl)phenyl)-7-(4-fluorophenyl)-N^4-methyl-6,7-dihydro-5H-cyclopenta[d]pyrimidine-2,4-diamine] |  | IC50 [3]: 0.0015 to 0.0099 µM |
| COc1cc(Nc2nc3c(c(N4CCC(N(C)C)C4)n2)CCC3c2ccc(F)cc2)ccc1-n1cnc(Cl)c1 (stereo not shown) [Example 29, N-(4-(4-chloro-1H-imidazol-1-yl)-3-methoxyphenyl)-4-(3-(dimethylamino)pyrrolidin-1-yl)-7-(4-fluorophenyl)-6,7-dihydro-5H-cyclopenta[d]pyrimidin-2-amine] | 0.01 to 0.1 |  |
| COc1cc(Nc2nc3c(c(N4CCN(C)CC4)n2)CCC3c2ccc(F)cc2)ccc1-n1cnc(Cl)c1 (stereo not shown) [Example 30, N-(4-(4-chloro-1H-imidazol-1-yl)-3-methoxyphenyl)-7-(4-fluorophenyl)-4-(4-methylpiperazin-1-yl)-6,7-dihydro-5H-cyclopenta[d]pyrimidin-2-amine] | 0.01 to 0.1 |  |
| COc1cc(Nc2nc3c(c(N4CCNCC4)n2)CCC3c2ccc(F)cc2)ccc1-n1cnc(Cl)c1 (stereo not shown) [Example 31, N-(4-(4-chloro-1H-imidazol-1-yl)-3-methoxyphenyl)-7-(4-fluorophenyl)-4-(piperazin-1-yl)-6,7-dihydro-5H-cyclopenta[d]pyrimidin-2-amine] | 0.1 to 1 |  |
| CNC1CCN(c2nc(Nc3ccc(-n4cnc(Cl)c4)c(OC)c3)nc3c2CCC3c2ccc(F)cc2)C1 (stereo not shown) [Example 32, N-(4-(4-chloro-1H-imidazol-1-yl)-3-methoxyphenyl)-7-(4-fluorophenyl)-4-(3-(methylamino)pyrrolidin-1-yl)-6,7-dihydro-5H-cyclopenta[d]pyrimidin-2-amine] | 0.01 to 0.1 |  |
| CNC1CN(c2nc(Nc3ccc(-n4cnc(Cl)c4)c(OC)c3)nc3c2CCC3c2ccc(F)cc2)C1 (stereo not shown) [Example 33, N-(4-(4-chloro-1H-imidazol-1-yl)-3-methoxyphenyl)-7-(4-fluorophenyl)-4-(3-(methylamino)azetidin-1-yl)-6,7-dihydro-5H-cyclopenta[d]pyrimidin-2-amine] |  | IC50 [2]: 0.1 µM |
| COc1cc(Nc2nc3c(c(N4CC(N(C)C)C4)n2)CCC3c2ccc(F)cc2)ccc1-n1cnc(Cl)c1 (stereo not shown) [Example 34, N-(4-(4-chloro-1H-imidazol-1-yl)-3-methoxyphenyl)-4-(3-(dimethylamino)azetidin-1-yl)-7-(4-fluorophenyl)-6,7-dihydro-5H-cyclopenta[d]pyrimidin-2-amine] | 0.01 to 0.1 |  |
